Assay results taken from patent publication US9994535B2, “Desferrithiocin polyether analogues” (University of Florida Research Foundation, Inc., priority 2005, dated 2018).

Tests used:
[1] = Iron clearing efficiency in non-iron overloaded, bile duct cannulated rat model; assay type: in vivo; settings: for Efficiency (%) (iron clearing efficiency): 300 μmol/kg, 24 hour iron excretion, 2:1 ligand-iron complex; for Iron clearing efficiency compared with parent drug (S)-4-(HO)-DADFT: same micromole per kilogram dose
Protocol: Iron Clearing Efficiency of Iron Chelators in a Non-Iron Overloaded, Bile Duct Cannulated Rat Model
Studies were performed in the non-iron overloaded, bile duct cannulated rodent model with the compounds shown below.
Briefly, male Sprague-Dawley rats averaging 450 g were housed in Nalgene plastic metabolic cages during the experimental period and given free access to water. The animals were anesthetized using sodium pentobarbital (55 mg/kg) administered intraperitoneally. The bile duct was cannulated using 22-gauge polyethylene tubing. The cannula was inserted into the duct about 1 cm from the duodenum and tied snugly in place. After threading through the shoulder, the cannula was passed from the rat to the swivel inside a metal torque-transmitting tether, which was attached to a rodent jacket around the animal's chest. The cannula was directed from the rat to a Gilson microfraction collector (Middleton, Wis.) by a fluid swivel mounted above the metabolic cage. Three hour bile samples were continuously collected for a minimum of 24 hours up to 48 hours. However, the efficiency calculations are based on the 24 hour iron excretion. The efficiency of each chelator was calculated on the basis of a 2:1 ligand-iron complex. The efficiencies in the rodent model were calculated by subtracting the iron excretion of control animals from the iron excretion of treated animals. This number was then divided by the theoretical output; the result is expressed as a percentage (Bergeron, R. J., et al., J. Med Chem. 42:95-108 (1999) the entire contents of which are incorporated herein by reference). The urine sample was taken at 24 hours and handled as previously described in Bergeron, R. J., et al., J. Med. Chem. 34:2072-2078 (1991), the entire contents of which are incorporated herein by reference.

[2] = Tissue and plasma concentrations upon subcutaneous administration to rats; assay type: in vivo; settings: rat, sc 300 μmol/kg
Protocol: Tissue Distribution of a Polyether-Substituted (S)-4′-Hydroxydesazadesferrithiocin Analogue [(S)-4′-(HO)-DADFT-PE] Upon Subcutaneous Administration to Rats
A measurement was made assessing (S)-4′-(HO)-DADFT-PE and (S)-4′-(HO)-DADFT tissue and plasma concentrations upon subcutaneous administration at times from 2-8 h post dosing. The rats were given this compound subcutaneously at 300 μmol/kg. The tissue and plasma level were obtained as described in Bergeron et al. J Med Chem. 48:821-831 (2005), the entire contents of which are incorporated herein by reference.

COc1ccc(C2=N[C@@](C)(C(=O)O)CS2)c(O)c1 [(S)-4′-(CH3O)-DADFT]
Efficiency (%) (iron clearing efficiency) ([1]; p.o.): 6.6 ± 2.8% | Brain concentration of administered compound ([2]; 2 h): 13.2 ± 4.8 nmol/g wet wt | Brain concentration of metabolite of administered compound ([2]; 2 h): <2.4 nmol/g wet wt | Brain concentration of administered compound ([2]; 4 h): 7.4 ± 0.7 nmol/g wet wt | Brain concentration of metabolite of administered compound ([2]; 4 h): <2.4 nmol/g wet wt | Brain concentration of administered compound ([2]; 6 h): 4.8 ± 3.1 nmol/g wet wt | Brain concentration of metabolite of administered compound ([2]; 6 h): <2.4 nmol/g wet wt | Brain concentration of administered compound ([2]; 8 h): <1.6 ± 0.0 nmol/g wet wt | Brain concentration of metabolite of administered compound ([2]; 8 h): <2.4 nmol/g wet wt | Heart concentration of administered compound ([2]; 2 h): 66.2 ± 2.2 nmol/g wet wt | Heart concentration of metabolite of administered compound ([2]; 2 h): 6.4 ± 0.6 nmol/g wet wt | Heart concentration of administered compound ([2]; 4 h): 32.6 ± 3.6 nmol/g wet wt | Heart concentration of metabolite of administered compound ([2]; 4 h): <4.8 nmol/g wet wt | Heart concentration of administered compound ([2]; 6 h): 28.2 ± 0.7 nmol/g wet wt | Heart concentration of metabolite of administered compound ([2]; 6 h): <4.8 nmol/g wet wt | Heart concentration of administered compound ([2]; 8 h): 26.3 ± 9.7 nmol/g wet wt | Heart concentration of metabolite of administered compound ([2]; 8 h): <4.8 nmol/g wet wt | Kidney concentration of administered compound ([2]; 2 h): 97.5 ± 24.5 nmol/g wet wt | Kidney concentration of metabolite of administered compound ([2]; 2 h): 49.9 ± 21.3 nmol/g wet wt | Kidney concentration of administered compound ([2]; 4 h): 57.0 ± 15.5 nmol/g wet wt | Kidney concentration of metabolite of administered compound ([2]; 4 h): 23.2 ± 1.7 nmol/g wet wt | Kidney concentration of administered compound ([2]; 6 h): 67.2 ± 9.9 nmol/g wet wt | Kidney concentration of metabolite of administered compound ([2]; 6 h): 21.7 ± 6.2 nmol/g wet wt | Kidney concentration of administered compound ([2]; 8 h): 67.4 ± 19.9 nmol/g wet wt | Kidney concentration of metabolite of administered compound ([2]; 8 h): 25.3 ± 2.5 nmol/g wet wt | Liver concentration of administered compound ([2]; 2 h): 111.0 ± 14.0 nmol/g wet wt | Liver concentration of metabolite of administered compound ([2]; 2 h): 43.5 ± 4.5 nmol/g wet wt | Liver concentration of administered compound ([2]; 4 h): 73.8 ± 10.8 nmol/g wet wt | Liver concentration of metabolite of administered compound ([2]; 4 h): 24.6 ± 1.1 nmol/g wet wt | Liver concentration of administered compound ([2]; 6 h): 80.9 ± 10.7 nmol/g wet wt | Liver concentration of metabolite of administered compound ([2]; 6 h): 26.9 ± 5.1 nmol/g wet wt | Liver concentration of administered compound ([2]; 8 h): 81.4 ± 15.9 nmol/g wet wt | Liver concentration of metabolite of administered compound ([2]; 8 h): 25.0 ± 3.6 nmol/g wet wt | Pancreas concentration of administered compound ([2]; 2 h): 37.1 ± 3.8 nmol/g wet wt | Pancreas concentration of metabolite of administered compound ([2]; 2 h): 1.3 ± 2.2 nmol/g wet wt | Pancreas concentration of administered compound ([2]; 4 h): 19.4 ± 1.4 nmol/g wet wt | Pancreas concentration of metabolite of administered compound ([2]; 4 h): 0.0 ± 0.0 nmol/g wet wt | Pancreas concentration of administered compound ([2]; 6 h): 16.5 ± 4.5 nmol/g wet wt | Pancreas concentration of metabolite of administered compound ([2]; 6 h): 0.0 ± 0.0 nmol/g wet wt | Pancreas concentration of administered compound ([2]; 8 h): 9.7 ± 0.7 nmol/g wet wt | Pancreas concentration of metabolite of administered compound ([2]; 8 h): 0.0 ± 0.0 nmol/g wet wt | Plasma concentration of administered compound ([2]; plasma, 2 h): 478.8 ± 36.8 µM | Plasma concentration of metabolite of administered compound ([2]; plasma, 2 h): 8.4 ± 1.8 µM | Plasma concentration of administered compound ([2]; plasma, 4 h): 236.3 ± 42.0 µM | Plasma concentration of metabolite of administered compound ([2]; plasma, 4 h): 4.2 ± 1.0 µM | Plasma concentration of administered compound ([2]; plasma, 6 h): 142.5 ± 29.5 µM | Plasma concentration of metabolite of administered compound ([2]; plasma, 6 h): 1.8 ± 0.6 µM | Plasma concentration of administered compound ([2]; plasma, 8 h): 79.6 ± 13.3 µM | Plasma concentration of metabolite of administered compound ([2]; plasma, 8 h): 0.0 ± 0.0 µM

C[C@]1(C(=O)O)CSC(c2ccc(O)cc2O)=N1 [(S)-4′-(HO)-DADFT, (S)-2-(2,4-dihydroxyphenyl)-4,5-dihydro-4-methyl-4-thiazolecarboxylic acid]
Efficiency (%) (iron clearing efficiency) ([1]; p.o.): 1.0 ± 0.4% | Efficiency (%) (iron clearing efficiency) ([1]; s.c.): 1.1 ± 0.6% | Brain concentration of administered compound ([2]; 2 h): 0 ± 0 nmol/g wet wt | Brain concentration of administered compound ([2]; 4 h): 0 ± 0 nmol/g wet wt | Brain concentration of administered compound ([2]; 6 h): 0 ± 0 nmol/g wet wt | Brain concentration of administered compound ([2]; 8 h): 0 ± 0 nmol/g wet wt | Heart concentration of administered compound ([2]; 2 h): 4.6 ± 3^ nmol/g wet wt | Heart concentration of administered compound ([2]; 4 h): 0 ± 0 nmol/g wet wt | Heart concentration of administered compound ([2]; 6 h): 0 ± 0 nmol/g wet wt | Heart concentration of administered compound ([2]; 8 h): 0 ± 0 nmol/g wet wt | Kidney concentration of administered compound ([2]; 2 h): 97.1 ± .50 nmol/g wet wt | Kidney concentration of administered compound ([2]; 4 h): 26.6 ± 7.1 nmol/g wet wt | Kidney concentration of administered compound ([2]; 6 h): 13.0 ± 8.0 nmol/g wet wt | Kidney concentration of administered compound ([2]; 8 h): 8.8 ± 2.9 nmol/g wet wt | Liver concentration of administered compound ([2]; 2 h): 48.3 ± 20.3 nmol/g wet wt | Liver concentration of administered compound ([2]; 4 h): 25.0 ± 3.9 nmol/g wet wt | Liver concentration of administered compound ([2]; 6 h): 19.3 ± 2.0 nmol/g wet wt | Liver concentration of administered compound ([2]; 8 h): 12.3 ± 0.8 nmol/g wet wt | Pancreas concentration of administered compound ([2]; 2 h): 5.8 ± 1.3 nmol/g wet wt | Pancreas concentration of administered compound ([2]; 4 h): 0 ± 0 nmol/g wet wt | Pancreas concentration of administered compound ([2]; 6 h): 0 ± 0 nmol/g wet wt | Pancreas concentration of administered compound ([2]; 8 h): 0 ± 0 nmol/g wet wt | concentration at 2 h ([2]; plasma, 2 h, read-out: Plasma concentration of administered compound): 13.1 ± 2.7 µM | Plasma concentration of administered compound ([2]; plasma, 4 h): 2 ± 0.4 µM | concentration at 6 h ([2]; plasma, 6 h, read-out: Plasma concentration of administered compound): 0 nM | concentration at 8 h ([2]; plasma, 8 h, read-out: Plasma concentration of administered compound): 0 nM

CCOC(=O)[C@@]1(C)CSC(c2ccc(OCCOCCOCCOC)cc2O)=N1 [(S)-4′-(HO)-DADFT-PE EE]
Efficiency (%) (iron clearing efficiency) ([1]; s.c.): 11.4 ± 0.8% | Iron clearing efficiency compared with parent drug (S)-4-(HO)-DADFT [1]: work better than the parent drug

COCCOCCOCCOc1ccc(C2=N[C@@](C)(C(=O)OC(C)C)CS2)c(O)c1 [(S)-4′-(HO)-DADFT-PE iPrE]
Efficiency (%) (iron clearing efficiency) ([1]; p.o.): 9.2 ± 4.4% | Efficiency (%) (iron clearing efficiency) ([1]; s.c.): 25.9 ± 9.2% | Iron clearing efficiency of isopropylester vs ethyl ester ([1]; both administered subcutaneously): significantly more efficient | Iron clearing efficiency compared with parent drug (S)-4-(HO)-DADFT [1]: work better than the parent drug

CC(C)OC(=O)[C@@]1(C)CSC(c2ccc(O)cc2O)=N1 [(S)-4′-(HO)-DADFT-iPrE]
Efficiency (%) (iron clearing efficiency) ([1]; s.c.): 1.98 ± 0.91%
